ChEMBL document CHEMBL4425136, “4-Oxo-1,4-dihydroquinoline-3-carboxamide Derivatives as New Axl Kinase Inhibitors” (J Med Chem, 2016)
One block for each compound: values may come before it.

Legend:
[1] = molecular target: T1, Tyrosine-protein kinase receptor UFO (Homo sapiens, UniProt P30530); assay: Inhibition of human recombinant AXL incubated for 1 to 1.5 hrs by FRET based Z'-Lyte kinase assay
T1 sequence (P30530 whole entry): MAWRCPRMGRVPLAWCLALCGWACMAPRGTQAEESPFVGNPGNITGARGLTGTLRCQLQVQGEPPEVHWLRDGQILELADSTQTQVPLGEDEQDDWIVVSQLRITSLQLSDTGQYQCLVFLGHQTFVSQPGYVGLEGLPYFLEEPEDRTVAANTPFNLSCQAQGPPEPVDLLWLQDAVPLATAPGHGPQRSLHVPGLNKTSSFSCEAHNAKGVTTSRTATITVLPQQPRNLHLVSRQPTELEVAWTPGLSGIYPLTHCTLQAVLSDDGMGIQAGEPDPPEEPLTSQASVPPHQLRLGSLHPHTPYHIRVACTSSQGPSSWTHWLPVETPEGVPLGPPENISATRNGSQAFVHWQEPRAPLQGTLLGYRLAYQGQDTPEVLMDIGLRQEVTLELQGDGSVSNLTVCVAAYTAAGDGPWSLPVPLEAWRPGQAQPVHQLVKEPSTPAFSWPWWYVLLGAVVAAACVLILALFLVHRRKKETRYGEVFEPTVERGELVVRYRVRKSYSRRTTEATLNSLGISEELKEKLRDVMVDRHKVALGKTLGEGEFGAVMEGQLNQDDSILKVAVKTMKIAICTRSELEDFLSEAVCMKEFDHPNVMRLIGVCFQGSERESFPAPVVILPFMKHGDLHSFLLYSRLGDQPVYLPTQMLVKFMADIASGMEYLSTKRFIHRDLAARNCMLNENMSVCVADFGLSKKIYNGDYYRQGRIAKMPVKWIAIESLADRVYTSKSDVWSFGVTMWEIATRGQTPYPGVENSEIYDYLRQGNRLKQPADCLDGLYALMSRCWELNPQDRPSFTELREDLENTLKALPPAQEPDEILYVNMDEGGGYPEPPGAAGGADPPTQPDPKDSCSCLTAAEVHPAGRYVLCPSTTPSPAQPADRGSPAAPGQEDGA

[2] = molecular target: T1, Tyrosine-protein kinase receptor UFO; assay: Binding affinity to human AXL by active site dependent completion binding assay
[3] = Oral bioavailability in Sprague-Dawley rat at 25 mg/kg by LC/MS method; assay type: ADME, organism-based; conditions: in vivo
MDA-MB-231 [4] = assay: Antiproliferative activity against human MDA-MB-231 cells after 24 to 72 hrs by MTT assay; assay type: functional, cell-based
4T1 [5] = assay: Antiproliferative activity against mouse 4T1 cells over-expressing Axl cells after 24 to 72 hrs by MTT assay; assay type: functional, cell-based
MDA-MB-231 [6] = assay: Antiproliferative activity against human MDA-MB-231 cells after 24 to 72 hrs by CCK8 assay; assay type: functional, cell-based
4T1 [7] = assay: Antiproliferative activity against mouse 4T1 cells over-expressing Axl cells after 24 to 72 hrs by CCK8 assay; assay type: functional, cell-based
MDA-MB-231 [8] = assay: Effect on total AXL protein level in human MDA-MB-231 cells at 0.03 to 3 uM after 6 hrs by Western blot method; assay type: ADME, cell-based; conditions: mda-mb-231, 6 h
MDA-MB-231 [9] = assay: Effect on total AKT protein level in human MDA-MB-231 cells at 0.03 to 3 uM after 6 hrs by Western blot method; assay type: ADME, cell-based; conditions: mda-mb-231, 6 h
[10] = Tmax in Sprague-Dawley rat at 25 mg/kg, po by LC/MS method; assay type: ADME, organism-based; conditions: in vivo
[11] = molecular target: T2, Receptor-type tyrosine-protein kinase FLT3 (Homo sapiens, UniProt P36888); assay: Inhibition of FLT3 (unknown origin)
[12] = molecular target: High affinity nerve growth factor receptor (Homo sapiens, UniProt P04629); assay: Binding affinity to human TRKA
MDA-MB-231 [13] = assay: Inhibition of TGFbeta1-induced cell invasion in human MDA-MB-231 cells at 0.04 uM incubated for 24 hrs by matrigel-mediated Boyden chamber assay; assay type: functional; conditions: MDA-MB-231, 24 h
MDA-MB-231 [14] = assay: Inhibition of TGFbeta1-induced cell invasion in human MDA-MB-231 cells at 5 uM incubated for 24 hrs by matrigel-mediated Boyden chamber assay; assay type: functional; conditions: MDA-MB-231, 24 h
[15] = AUC (0 to infinity) in Sprague-Dawley rat at 2.5 mg/kg, iv by LC/MS method; assay type: ADME, organism-based; parameters: dose 2.5 mg/kg, route intravenous, time infinity; conditions: in vivo
[16] = Half life in Sprague-Dawley rat at 2.5 mg/kg, iv by LC/MS method; assay type: ADME, organism-based; conditions: in vivo
MDA-MB-231 [17] = assay: Toxicity in human MDA-MB-231 cells at 0.04 to 5 uM incubated for 24 hrs; assay type: cell-based; conditions: mda-mb-231, 24 h
[18] = molecular target: Homeodomain-interacting protein kinase 4 (Homo sapiens, UniProt Q8NE63); assay: Binding affinity to human HIPk4
[19] = molecular target: ALK tyrosine kinase receptor (Homo sapiens, UniProt Q9UM73); assay: Binding affinity to human ALK
MDA-MB-231 [20] = assay: Inhibition of TGFbeta1-induced cell migration in human MDA-MB-231 cells at 0.2 uM incubated for 24 hrs by wound healing assay; assay type: functional; conditions: MDA-MB-231, 24 h
[21] = molecular target: Serine/threonine-protein kinase 10 (Homo sapiens, UniProt O94804); assay: Binding affinity to human LOK
[22] = molecular target: Tyrosine-protein kinase receptor TYRO3 (Homo sapiens, UniProt Q06418); assay: Binding affinity to human Tyro3
[23] = molecular target: Dual specificity mitogen-activated protein kinase kinase 5 (Homo sapiens, UniProt Q13163); assay: Binding affinity to human MEK5
[24] = molecular target: BDNF/NT-3 growth factors receptor (Homo sapiens, UniProt Q16620); assay: Binding affinity to human TRKB
[25] = molecular target: Tyrosine-protein kinase Mer (Homo sapiens, UniProt Q12866); assay: Binding affinity to human MER
MDA-MB-231 [26] = assay: Inhibition of TGFbeta1-induced cell migration in human MDA-MB-231 cells at 1 uM incubated for 24 hrs by wound healing assay; assay type: functional; conditions: MDA-MB-231, 24 h
[27] = molecular target: Cyclin-dependent kinase 11B (Homo sapiens, UniProt P21127); assay: Binding affinity to human CDK11
[28] = molecular target: Cyclin-dependent kinase 8 (Homo sapiens, UniProt P49336); assay: Binding affinity to human CDK8
MDA-MB-231 [29] = assay: Inhibition of TGFbeta1-induced cell migration in human MDA-MB-231 cells at 5 uM incubated for 24 hrs by wound healing assay; assay type: functional; conditions: MDA-MB-231, 24 h
[30] = molecular target: Tyrosine-protein kinase Blk (Homo sapiens, UniProt P51451); assay: Binding affinity to human BLK
[31] = Clearance in Sprague-Dawley rat at 2.5 mg/kg, iv by LC/MS method; assay type: ADME, organism-based; conditions: in vivo
[32] = molecular target: T1, Tyrosine-protein kinase receptor UFO; assay: Binding affinity to human AXL
[33] = molecular target: Mast/stem cell growth factor receptor Kit (Homo sapiens, UniProt P10721); assay: Binding affinity to human KIT
[34] = Ratio of Cmax in Sprague-Dawley rat at 25 mg/kg, po to IC50 for inhibition of human recombinant AXL; assay type: organism-based; conditions: in vivo
[35] = molecular target: STE20-like serine/threonine-protein kinase (Homo sapiens, UniProt Q9H2G2); assay: Binding affinity to human SLK
[36] = molecular target: Epithelial discoidin domain-containing receptor 1 (Homo sapiens, UniProt Q08345); assay: Inhibition of DDR1 (unknown origin)
Aurora kinase B = Aurora kinase B (Homo sapiens, UniProt Q96GD4); assay: Inhibition of aurora B (unknown origin)
[37] = molecular target: Hepatocyte growth factor receptor (Homo sapiens, UniProt P08581); assay: Binding affinity to human MET
MDA-MB-231 [38] = assay: Inhibition of TGFbeta1-induced cell invasion in human MDA-MB-231 cells at 1 uM incubated for 24 hrs by matrigel-mediated Boyden chamber assay; assay type: functional; conditions: MDA-MB-231, 24 h
[39] = molecular target: Discoidin domain-containing receptor 2 (Homo sapiens, UniProt Q16832); assay: Inhibition of DDR2 (unknown origin)
MDA-MB-231 [40] = assay: Inhibition of TGFbeta1-induced cell invasion in human MDA-MB-231 cells at 0.2 uM incubated for 24 hrs by matrigel-mediated Boyden chamber assay; assay type: functional; conditions: MDA-MB-231, 24 h
[41] = molecular target: T2, Receptor-type tyrosine-protein kinase FLT3; assay: Binding affinity to human FLT3
Aurora kinase A = Aurora kinase A (Homo sapiens, UniProt O14965); assay: Inhibition of aurora A (unknown origin)
[42] = Cmax in Sprague-Dawley rat at 2.5 mg/kg, iv by LC/MS method; assay type: ADME, organism-based; parameters: dose 2.5 mg/kg, route intravenous; conditions: in vivo

T2 sequence (P36888 whole entry): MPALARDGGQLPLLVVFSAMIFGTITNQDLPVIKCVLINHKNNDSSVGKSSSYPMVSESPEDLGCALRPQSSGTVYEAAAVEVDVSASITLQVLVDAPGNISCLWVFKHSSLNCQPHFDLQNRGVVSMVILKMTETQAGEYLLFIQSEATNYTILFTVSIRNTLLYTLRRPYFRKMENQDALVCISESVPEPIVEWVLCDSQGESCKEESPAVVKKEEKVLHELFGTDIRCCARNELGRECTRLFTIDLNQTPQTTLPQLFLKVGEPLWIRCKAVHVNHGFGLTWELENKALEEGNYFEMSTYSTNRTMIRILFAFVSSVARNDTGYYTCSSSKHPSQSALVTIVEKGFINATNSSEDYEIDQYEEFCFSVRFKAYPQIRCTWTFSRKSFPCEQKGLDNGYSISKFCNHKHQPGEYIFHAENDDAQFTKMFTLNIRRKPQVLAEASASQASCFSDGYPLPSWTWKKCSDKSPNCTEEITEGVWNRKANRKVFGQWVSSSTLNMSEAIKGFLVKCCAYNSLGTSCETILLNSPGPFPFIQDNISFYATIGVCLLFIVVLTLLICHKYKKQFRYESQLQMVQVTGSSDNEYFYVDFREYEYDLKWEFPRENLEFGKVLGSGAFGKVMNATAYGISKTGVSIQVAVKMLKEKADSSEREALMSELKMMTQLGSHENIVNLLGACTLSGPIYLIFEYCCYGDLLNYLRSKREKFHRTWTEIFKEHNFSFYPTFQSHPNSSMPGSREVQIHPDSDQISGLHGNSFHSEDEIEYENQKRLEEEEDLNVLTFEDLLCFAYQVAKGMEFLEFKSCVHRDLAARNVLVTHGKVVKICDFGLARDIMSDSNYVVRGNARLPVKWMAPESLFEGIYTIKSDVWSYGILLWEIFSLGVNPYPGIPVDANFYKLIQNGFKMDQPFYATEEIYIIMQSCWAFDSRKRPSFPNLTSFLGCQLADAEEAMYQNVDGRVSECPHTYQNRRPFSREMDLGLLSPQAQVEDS
Sequence of Tyrosine-protein kinase Blk (P51451 whole entry): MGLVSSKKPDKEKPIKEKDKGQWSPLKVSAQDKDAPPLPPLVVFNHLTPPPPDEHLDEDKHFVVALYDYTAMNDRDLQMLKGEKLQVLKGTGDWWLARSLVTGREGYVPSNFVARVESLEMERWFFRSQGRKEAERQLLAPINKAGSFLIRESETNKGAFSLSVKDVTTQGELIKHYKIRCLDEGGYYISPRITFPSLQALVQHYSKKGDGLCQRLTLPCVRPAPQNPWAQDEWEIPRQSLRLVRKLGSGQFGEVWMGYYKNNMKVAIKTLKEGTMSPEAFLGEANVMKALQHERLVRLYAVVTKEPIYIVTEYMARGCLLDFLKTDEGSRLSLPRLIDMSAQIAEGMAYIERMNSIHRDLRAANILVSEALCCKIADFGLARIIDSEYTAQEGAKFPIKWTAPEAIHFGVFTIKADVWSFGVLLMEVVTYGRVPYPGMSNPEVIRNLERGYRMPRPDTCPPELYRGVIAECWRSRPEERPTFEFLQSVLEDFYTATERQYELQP
Sequence of Dual specificity mitogen-activated protein kinase kinase 5 (Q13163 whole entry): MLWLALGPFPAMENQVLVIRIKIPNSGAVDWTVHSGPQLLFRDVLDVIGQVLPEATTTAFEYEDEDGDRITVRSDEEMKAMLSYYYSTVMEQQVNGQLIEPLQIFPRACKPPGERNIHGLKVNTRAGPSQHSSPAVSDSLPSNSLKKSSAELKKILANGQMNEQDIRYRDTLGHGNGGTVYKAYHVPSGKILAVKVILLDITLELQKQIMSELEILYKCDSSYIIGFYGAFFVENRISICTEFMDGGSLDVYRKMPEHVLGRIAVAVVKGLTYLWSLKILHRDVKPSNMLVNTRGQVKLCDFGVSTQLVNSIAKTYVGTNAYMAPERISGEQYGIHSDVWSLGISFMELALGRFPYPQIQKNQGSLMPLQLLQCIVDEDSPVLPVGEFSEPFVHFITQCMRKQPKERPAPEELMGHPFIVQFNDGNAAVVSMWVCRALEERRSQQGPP
Sequence of Tyrosine-protein kinase receptor TYRO3 (Q06418 whole entry): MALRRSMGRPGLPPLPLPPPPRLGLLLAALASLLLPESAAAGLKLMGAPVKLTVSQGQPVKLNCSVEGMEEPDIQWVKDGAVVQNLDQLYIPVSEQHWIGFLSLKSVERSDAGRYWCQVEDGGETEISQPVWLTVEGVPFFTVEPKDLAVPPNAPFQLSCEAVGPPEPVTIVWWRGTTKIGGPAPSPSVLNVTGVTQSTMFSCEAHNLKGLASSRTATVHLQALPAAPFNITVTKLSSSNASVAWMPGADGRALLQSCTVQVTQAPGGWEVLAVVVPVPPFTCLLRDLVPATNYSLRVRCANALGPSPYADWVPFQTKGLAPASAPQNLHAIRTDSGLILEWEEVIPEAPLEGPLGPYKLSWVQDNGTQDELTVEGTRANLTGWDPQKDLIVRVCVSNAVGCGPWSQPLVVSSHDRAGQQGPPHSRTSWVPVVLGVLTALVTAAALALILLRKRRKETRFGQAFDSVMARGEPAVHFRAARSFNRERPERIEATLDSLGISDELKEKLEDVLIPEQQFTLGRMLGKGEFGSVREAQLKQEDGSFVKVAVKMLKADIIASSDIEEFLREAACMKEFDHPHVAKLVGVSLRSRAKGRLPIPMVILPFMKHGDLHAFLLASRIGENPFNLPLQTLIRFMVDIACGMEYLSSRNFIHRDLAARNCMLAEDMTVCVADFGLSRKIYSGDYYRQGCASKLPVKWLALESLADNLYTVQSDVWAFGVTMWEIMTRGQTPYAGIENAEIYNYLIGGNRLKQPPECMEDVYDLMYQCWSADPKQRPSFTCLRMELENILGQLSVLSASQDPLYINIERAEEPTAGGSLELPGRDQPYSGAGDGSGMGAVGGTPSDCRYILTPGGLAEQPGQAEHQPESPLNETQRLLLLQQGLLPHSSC
Sequence of Hepatocyte growth factor receptor (P08581 whole entry): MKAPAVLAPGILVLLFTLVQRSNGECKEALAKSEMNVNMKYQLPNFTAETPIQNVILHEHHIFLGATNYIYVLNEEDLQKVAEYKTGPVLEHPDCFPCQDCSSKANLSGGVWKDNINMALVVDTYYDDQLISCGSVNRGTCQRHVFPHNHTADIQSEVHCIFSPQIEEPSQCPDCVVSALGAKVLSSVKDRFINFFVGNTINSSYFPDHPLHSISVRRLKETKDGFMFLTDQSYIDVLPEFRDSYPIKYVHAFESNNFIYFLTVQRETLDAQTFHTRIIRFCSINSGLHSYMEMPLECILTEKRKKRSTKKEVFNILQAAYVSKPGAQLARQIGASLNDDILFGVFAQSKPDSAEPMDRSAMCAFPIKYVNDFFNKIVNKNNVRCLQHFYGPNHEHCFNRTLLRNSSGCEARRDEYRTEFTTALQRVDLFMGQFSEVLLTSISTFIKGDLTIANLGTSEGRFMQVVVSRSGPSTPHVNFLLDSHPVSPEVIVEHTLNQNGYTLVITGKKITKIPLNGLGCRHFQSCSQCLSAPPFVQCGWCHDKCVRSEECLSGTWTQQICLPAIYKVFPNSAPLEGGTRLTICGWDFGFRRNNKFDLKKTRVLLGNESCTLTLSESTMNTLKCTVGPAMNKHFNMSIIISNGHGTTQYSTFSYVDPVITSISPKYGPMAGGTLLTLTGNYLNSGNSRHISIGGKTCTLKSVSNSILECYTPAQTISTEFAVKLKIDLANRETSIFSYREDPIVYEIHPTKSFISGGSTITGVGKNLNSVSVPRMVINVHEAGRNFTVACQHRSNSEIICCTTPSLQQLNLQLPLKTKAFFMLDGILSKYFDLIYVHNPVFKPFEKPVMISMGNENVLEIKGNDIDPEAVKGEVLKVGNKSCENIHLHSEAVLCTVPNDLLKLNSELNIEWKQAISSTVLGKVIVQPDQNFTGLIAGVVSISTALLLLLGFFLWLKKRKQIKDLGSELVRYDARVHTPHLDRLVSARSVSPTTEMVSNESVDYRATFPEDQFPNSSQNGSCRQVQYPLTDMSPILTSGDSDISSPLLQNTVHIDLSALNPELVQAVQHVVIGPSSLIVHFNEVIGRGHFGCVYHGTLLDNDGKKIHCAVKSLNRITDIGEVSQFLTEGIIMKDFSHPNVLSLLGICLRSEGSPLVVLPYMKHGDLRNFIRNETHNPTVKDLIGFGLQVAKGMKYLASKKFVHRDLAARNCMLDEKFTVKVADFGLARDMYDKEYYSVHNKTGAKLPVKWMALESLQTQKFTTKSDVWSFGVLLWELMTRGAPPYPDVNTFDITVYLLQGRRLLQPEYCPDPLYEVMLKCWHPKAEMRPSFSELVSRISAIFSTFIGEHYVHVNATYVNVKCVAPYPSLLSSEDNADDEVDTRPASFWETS
Sequence of Cyclin-dependent kinase 8 (P49336 whole entry): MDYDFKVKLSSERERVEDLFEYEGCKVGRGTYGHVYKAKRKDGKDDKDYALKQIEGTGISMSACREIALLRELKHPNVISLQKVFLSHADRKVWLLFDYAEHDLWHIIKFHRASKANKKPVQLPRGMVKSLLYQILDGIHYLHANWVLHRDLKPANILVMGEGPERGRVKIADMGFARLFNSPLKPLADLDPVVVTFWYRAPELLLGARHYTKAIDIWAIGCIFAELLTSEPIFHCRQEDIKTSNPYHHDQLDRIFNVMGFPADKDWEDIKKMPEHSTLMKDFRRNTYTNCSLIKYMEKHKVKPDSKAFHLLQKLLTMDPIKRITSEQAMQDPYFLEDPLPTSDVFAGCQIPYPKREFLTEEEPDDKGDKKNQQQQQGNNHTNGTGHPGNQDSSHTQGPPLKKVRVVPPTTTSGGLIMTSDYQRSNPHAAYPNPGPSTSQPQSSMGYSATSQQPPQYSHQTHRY
Sequence of Aurora kinase B (Q96GD4 whole entry): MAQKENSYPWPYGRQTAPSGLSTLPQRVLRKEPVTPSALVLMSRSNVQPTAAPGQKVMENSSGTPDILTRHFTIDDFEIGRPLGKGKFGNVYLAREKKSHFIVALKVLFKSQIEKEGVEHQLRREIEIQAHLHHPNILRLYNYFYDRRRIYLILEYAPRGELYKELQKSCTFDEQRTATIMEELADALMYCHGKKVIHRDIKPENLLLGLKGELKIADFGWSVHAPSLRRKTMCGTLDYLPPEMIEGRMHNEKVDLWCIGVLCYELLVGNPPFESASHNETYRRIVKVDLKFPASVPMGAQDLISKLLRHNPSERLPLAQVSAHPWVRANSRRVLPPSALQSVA

IC50 [1]: 30 nM
Structure (SMILES): CCc1ccc2c(c1)c(=O)c(C(=O)Nc1ccc(Oc3ccnc4[nH]cc(-c5ccccc5)c34)c(F)c1)c(C)n2C

IC50 [1]: > 10000 nM
Structure (SMILES): CCc1ccc2c(c1)c(=O)c(C(=O)Nc1ccc(Oc3ccnc(Cl)c3)c(F)c1)c(C)n2C

IC50 [1]: 192 nM
Structure (SMILES): CCc1ccc2c(c1)c(=O)c(C(=O)Nc1ccc(Oc3ccnc4occ(-c5ccccc5)c34)c(F)c1)c(C)n2C

IC50 [1]: 100 nM
Structure (SMILES): Cc1ccc2c(c1)c(=O)c(C(=O)Nc1ccc(Oc3ncnc4[nH]cc(-c5ccccc5)c34)c(F)c1)c(C)n2C

IC50 [1]: 230 nM
Structure (SMILES): Cc1c(C(=O)Nc2ccc(Oc3ncnc4[nH]cc(-c5ccccc5)c34)c(F)c2)c(=O)c2cc(C3CC3)ccc2n1C

IC50 [1]: 150 nM
Structure (SMILES): Cc1c(C(=O)Nc2ccc(Oc3ncnc4[nH]cc(-c5ccccc5)c34)c(F)c2)c(=O)c2cc(C(F)(F)F)ccc2n1C

IC50 [1]: > 10000 nM
Structure (SMILES): CCc1ccc2c(c1)c(=O)c(C(=O)Nc1ccc(Oc3ccnc(C(N)=O)c3Cl)c(F)c1)c(C)n2C

IC50 [1]: > 10000 nM
Structure (SMILES): COC(=O)c1ccc2c(c1)c(=O)c(C(=O)Nc1ccc(Oc3ncnc4[nH]cc(-c5ccccc5)c34)c(F)c1)c(C)n2C

Kd [2]: 1.2 nM | bioavailability [3]: 1.2% | IC50 (MDA-MB-231 [4]): > 10000 nM | IC50 (4T1 [5]): > 10000 nM | IC50 (MDA-MB-231 [6]): > 10000 nM | IC50 (4T1 [7]): > 10000 nM | Tmax [10]: 0.67 h
Structure (SMILES): CCc1ccc2c(c1)c(=O)c(C(=O)Nc1ccc(Oc3ncnc4[nH]cc(-c5ccccc5)c34)c(F)c1)c(C)n2C
Activity (MDA-MB-231 [8]): Non-Toxic | Activity (MDA-MB-231 [9]): Non-Toxic

IC50 [1]: 170 nM
Structure (SMILES): C=C(C)c1ccc2c(c1)c(=O)c(C(=O)Nc1ccc(Oc3ncnc4[nH]cc(-c5ccccc5)c34)c(F)c1)c(C)n2C

IC50 [1]: 150 nM
Structure (SMILES): CCn1c(C)c(C(=O)Nc2ccc(Oc3ncnc4[nH]cc(-c5ccccc5)c34)c(F)c2)c(=O)c2cc(C)ccc21

IC50 [1]: 3320 nM
Structure (SMILES): Cc1c(C(=O)Nc2ccc(Oc3ncnc4[nH]cc(-c5ccccc5)c34)c(F)c2)c(=O)c2cc(C3=CCCC3)ccc2n1C

IC50 [1]: 74 nM
Structure (SMILES): Cc1c(C(=O)Nc2ccc(Oc3ncnc4[nH]cc(-c5ccccc5)c34)c(F)c2)c(=O)c2cc(OC(F)(F)F)ccc2n1C

IC50 [1]: 30 nM
Structure (SMILES): CCc1ccc2c(c1)c(=O)c(C(=O)Nc1ccc(Oc3ncnc4[nH]cc(-c5ccccc5)c34)cc1F)c(C)n2C

IC50 [1]: 150 nM
Structure (SMILES): Cc1ccc2c(c1)c(=O)c(C(=O)Nc1ccc(Oc3ncnc4[nH]cc(-c5ccccc5)c34)c(F)c1)cn2C

IC50 [1]: 200 nM
Structure (SMILES): Cc1c(C(=O)Nc2ccc(Oc3ncnc4[nH]cc(-c5ccccc5)c34)c(F)c2)c(=O)c2cc(C3CCCC3)ccc2n1C

Kd [2]: 2.7 nM | IC50 [11]: < 10 nM | Kd [12]: 50 nM | AUC(0-inf) [15]: 42300 ng·h/mL | half-life [16]: 25.2 h | Kd [18]: 11 nM | IC50 (MDA-MB-231 [4]): > 10000 nM | Kd [19]: > 1000 nM | Kd [21]: 10 nM | Kd [22]: 58 nM | Kd [23]: 38 nM | Kd [24]: 54 nM | Kd [25]: 1.4 nM | IC50 (4T1 [5]): > 10000 nM | Kd [27]: 470 nM | Kd [28]: > 1000 nM | IC50 (MDA-MB-231 [6]): > 10000 nM | Kd [30]: 200 nM | clearance [31]: 1.67 mL/min/kg | Kd [32]: 2.7 nM | Kd [33]: 1670 nM | IC50 (4T1 [7]): > 10000 nM | Ratio [34]: > 900 | Kd [35]: 240 nM | IC50 [36]: 22.2 nM | IC50 (Aurora kinase B): 114 nM | Kd [37]: 79 nM | Tmax [10]: 6 h | IC50 [39]: 350 nM | Kd [41]: 4 nM | IC50 (Aurora kinase A): 192 nM | Cmax [42]: 1170 ng/mL
Structure (SMILES): CCc1ccc2c(c1)c(=O)c(C(=O)Nc1ccc(Oc3ncnc4cc(OC)c(OC)cc34)c(F)c1)c(C)n2C
inhibition at 0.04 µM (MDA-MB-231 [13]): 48.5% | inhibition at 5 µM (MDA-MB-231 [14]): 78.1% | Activity (MDA-MB-231 [17]): Non-Toxic | inhibition at 0.2 µM (MDA-MB-231 [20]): 24.2% | inhibition at 1 µM (MDA-MB-231 [26]): 50.6% | inhibition at 5 µM (MDA-MB-231 [29]): 58.4% | Activity (MDA-MB-231 [8]): Non-Toxic | Activity (MDA-MB-231 [9]): Non-Toxic | inhibition at 1 µM (MDA-MB-231 [38]): 73.5% | inhibition at 0.2 µM (MDA-MB-231 [40]): 52.1%
